Like-named read-outs stand apart in the source and are kept apart here.

The test relates to Myc. Briefly: Myc inhibition assay: Myc expression per cell by anti-Myc immunofluorescence, high-content imaging. The note with it: medulloblastoma PDX cells, 4 h. Format: cell-based, human (patient-derived medulloblastoma xenograft cells). From the text: To identify Myc inhibitors, cells isolated from patient-derived orthotopic xenografts (PDXs) from patients with Myc-driven medulloblastoma were used. Specifically, PDX cells were propagated by transplantation directly into the cerebellum of immunodeficient (NSG) mice and were never passaged in vitro in order to maintain properties of the tumor from which they were derived. Tumor tissues were isolated from tumor-bearing animals, dissociated into a single-cell suspension, resuspended in serum-free media, and immediately plated in 384 well plates. After overnight recovery, compounds were added to each well, and cells were incubated for 4 hours before being fixed and stained with anti-Myc antibodies and with DAPI to label nuclei. Cells were then analyzed using high-content imaging to determine the levels of Myc expression per cell and IC50 values of the compounds.
(In general: Xenograft models place foreign cells or tissue in a host animal.)

[1] abbreviates: Table 1, read-out: IC50 (Myc inhibition).
Setting [2] is: Table 2, read-out: MYC Inhibition IC50.

As to `Cn1nccc1CNc1nccc(-c2ccc3[nH]cnc3c2)n1` [Compound 82, 4-(1H-benzo[d]imidazol-5-yl)-N-((1-methyl-1H-pyrazol-5-yl)methyl)pyrimidin-2-amine], the IC50 (as a rule, the midpoint of a concentration-inhibition curve) lay in the range of 1000 to 10000 nM under setting [1] and 1000 to 10000 nM under setting [2].
`c1cc(-c2ccc3[nH]cnc3c2)nc(Nc2ccc3sccc3c2)n1` [Compound 269, N-(benzo[b]thiophen-5-yl)-4-(1H-benzo[d]imidazol-5-yl)pyrimidin-2-amine]: the IC50 runs as follows: under setting [1], 200 to 1000 nM; under setting [2], 200 to 1000 nM.
On to `Oc1cc(-c2ccnc(Nc3ccccc3F)n2)ccn1` [Compound 207, 4-(2-((2-fluorophenyl)amino)pyrimidin-4-yl)pyridin-2-ol], for which the half-inhibitory concentration (IC50) by setting is: under setting [1], 10000 to 100000 nM; under setting [2], 10000 to 100000 nM.
In the case of `Oc1ccc(-c2ccnc(Nc3cccc(F)c3)n2)cc1` [Compound 194, 4-(2-((3-fluorophenyl)amino)pyrimidin-4-yl)phenol], the IC50 under setting [1] was in the range of 1000 to 10000 nM and the IC50 under setting [2] lay in the range of 1000 to 10000 nM.
Take `CC(C)(C)c1ccccc1Nc1nccc(-c2ccc3[nH]cnc3c2)n1` [Compound 53, 4-(1H-benzo[d]imidazol-5-yl)-N-(2-(tert-butyl)phenyl)pyrimidin-2-amine]: the half-inhibitory concentration (IC50) under setting [1] fell in the range of 1000 to 10000 nM and the IC50 under setting [2] lay in the range of 1000 to 10000 nM.
Consider `CC(=O)Nc1cccc(Nc2nccc(-c3ccc4[nH]cnc4c3)n2)c1` [Compound 2, N-(3-((4-(1H-benzo[d]imidazol-5-yl)pyrimidin-2-yl)amino)phenyl)acetamide], for which the IC50 runs as follows: under setting [1], 200 to 1000 nM; under setting [2], 200 to 1000 nM.
For the molecule `Oc1cc(-c2ccnc(Nc3cc(F)cc(F)c3)n2)ccn1` [Compound 147, 4-(2-((3,5-difluorophenyl)amino)pyrimidin-4-yl)pyridin-2-ol], the IC50 under setting [1] lay within 1000 to 10000 nM and the IC50 under setting [2] lay in the range of 1000 to 10000 nM.
Consider `Oc1cc(-c2ccnc(Nc3ccnc(C(F)(F)F)c3)n2)ccn1` [Compound 156, 4-(2-((2-(trifluoromethyl)pyridin-4-yl)amino)pyrimidin-4-yl)pyridin-2-ol], for which the IC50 by setting is: under setting [1], 10000 to 100000 nM; under setting [2], 10000 to 100000 nM.
Turning to `Oc1ccc(-c2ccnc(Nc3cccc(C(F)(F)F)c3)n2)cc1` [Compound 130, 4-(2-((3-(Trifluoromethyl)phenyl)amino)pyrimidin-4-yl)phenol], the IC50 is, setting by setting: under setting [1], 200 to 1000 nM; under setting [2], 200 to 1000 nM.
Consider `COc1cc(-c2ccnc(Nc3cc(F)cc(F)c3)n2)ccn1` [Compound 148, N-(3,5-difluorophenyl)-4-(2-methoxypyridin-4-yl)pyrimidin-2-amine], for which the IC50 is, setting by setting: under setting [1], 1000 to 10000 nM; under setting [2], 1000 to 10000 nM.
`FC(F)(F)c1cccc(Nc2nccc(-c3ccc4[nH]ccc4c3)n2)c1` [Compound 152, 4-(1H-indol-5-yl)-N-(3-(trifluoromethyl)phenyl)pyrimidin-2-amine]: the IC50 under setting [1] is 1000 to 10000 nM and the concentration for half-maximal inhibition (IC50) under setting [2] was 1000 to 10000 nM.
For `CC(C)c1nnc(Nc2nccc(-c3ccc4[nH]cnc4c3)n2)[nH]1` [Compound 54, 4-(1H-benzo[d]imidazol-5-yl)-N-(5-isopropyl-4H-1,2,4-triazol-3-yl)pyrimidin-2-amine], the half-inhibitory concentration (IC50) runs as follows: under setting [1], 1000 to 10000 nM; under setting [2], 1000 to 10000 nM.
Regarding `COc1ncc(-c2ccnc(Nc3cccc(F)c3)n2)s1` [Compound 180, N-(3-fluorophenyl)-4-(2-methoxythiazol-5-yl)pyrimidin-2-amine], the concentration for half-maximal inhibition (IC50) fell in the range of 1000 to 10000 nM under setting [1] and 1000 to 10000 nM under setting [2].
Regarding `COc1ccc(Oc2ccnc(Nc3cccc(C(F)(F)F)c3)n2)cn1` [Compound 109, 4-((6-methoxypyridin-3-yl)oxy)-N-(3-(trifluoromethyl)phenyl)pyrimidin-2-amine], the IC50 by setting is: under setting [1], 1000 to 10000 nM; under setting [2], 1000 to 10000 nM.
Turning to `Oc1cc(-c2ccnc(Nc3ccccn3)n2)ccn1` [Compound 186, 4-(2-(pyridin-2-ylamino)pyrimidin-4-yl)pyridin-2-ol], the half-inhibitory concentration (IC50) under setting [1] was in the range of 10000 to 100000 nM and the concentration for half-maximal inhibition (IC50) under setting [2] lay in the range of 10000 to 100000 nM.
As for `COc1ccc(-c2ccnc(Nc3ccccc3)n2)cn1` [Compound 239, 4-(6-methoxypyridin-3-yl)-N-phenylpyrimidin-2-amine], the IC50 was 10000 to 100000 nM under setting [1] and 10000 to 100000 nM under setting [2].
As for `Oc1cc(-c2ccnc(Nc3cccnc3)n2)ccn1` [Compound 188, 4-(2-(pyridin-3-ylamino)pyrimidin-4-yl)pyridin-2-ol], the half-maximal inhibitory concentration (IC50) under setting [1] lay in the range of 1000 to 10000 nM and the half-inhibitory concentration (IC50) under setting [2] lay in the range of 1000 to 10000 nM.
Consider `Oc1cncc(-c2ccnc(Nc3cccc(C(F)(F)F)c3)n2)c1` [Compound 201, 5-(2-((3-(trifluoromethyl)phenyl)amino)pyrimidin-4-yl)pyridin-3-ol], for which the IC50 under setting [1] lay in the range of 1000 to 10000 nM and the 50% inhibitory concentration (IC50) under setting [2] is 1000 to 10000 nM.
As to `Oc1cc(-c2ccnc(Nc3cccc(F)c3F)n2)ccn1` [Compound 205, 4-(2-((2,3-difluorophenyl)amino)pyrimidin-4-yl)pyridin-2-ol], the IC50 was 1000 to 10000 nM under setting [1] and 1000 to 10000 nM under setting [2].
Consider `COc1cc(-c2ccnc(Nc3cncc(C(F)(F)F)c3)n2)ccn1` [Compound 155, 4-(2-methoxypyridin-4-yl)-N-(5-(trifluoromethyl)pyridin-3-yl)pyrimidin-2-amine], for which the concentration for half-maximal inhibition (IC50) by setting is: under setting [1], 10000 to 100000 nM; under setting [2], 10000 to 100000 nM.
For `Fc1cc(Nc2nccc(-c3ccc4[nH]cnc4c3)n2)cc(F)c1F` [Compound 258, 4-(1H-benzo[d]imidazol-5-yl)-N-(3,4,5-trifluorophenyl)pyrimidin-2-amine], the 50% inhibitory concentration (IC50) runs as follows: under setting [1], under 200 nM; under setting [2], under 200 nM.
With `COc1cc(-c2ccnc(Nc3ccnc(C(F)(F)F)c3)n2)ccn1` [Compound 157, 4-(2-methoxypyridin-4-yl)-N-(2-(trifluoromethyl)pyridin-4-yl)pyrimidin-2-amine], the IC50 by setting is: under setting [1], 10000 to 100000 nM; under setting [2], 10000 to 100000 nM.
Take `c1cc(Nc2nccc(-c3ccc4[nH]cnc4c3)n2)cc(-c2ccncc2)c1` [Compound 43, 4-(1H-benzo[d]imidazol-5-yl)-N-(3-(pyridin-4-yl)phenyl)pyrimidin-2-amine]: the concentration for half-maximal inhibition (IC50) is under 200 nM under setting [1] and under 200 nM under setting [2].
Regarding `FC(F)(F)c1cccc(Nc2nccc(-c3ccc4[nH]cnc4c3)n2)c1` [Compound 50], the concentration for half-maximal inhibition (IC50) runs as follows: under setting [1], 1000 to 10000 nM; under setting [2], 1000 to 10000 nM.
Regarding `CC(C)(C)NS(=O)(=O)c1cccc(Nc2nccc(-c3ccc4[nH]cnc4c3)n2)c1` [Compound 32, 3-((4-(1H-benzo[d]imidazol-5-yl)pyrimidin-2-yl)amino)-N-(tert-butyl)benzenesulfonamide], the IC50 reads like this: under setting [1], 200 to 1000 nM; under setting [2], 200 to 1000 nM.
With `NC(=O)c1ccc(Nc2nccc(-c3ccc4[nH]cnc4c3)n2)cc1` [Compound 73, 4-((4-(1H-benzo[d]imidazol-5-yl)pyrimidin-2-yl)amino)benzamide], the IC50 fell in the range of 1000 to 10000 nM under setting [1] and 1000 to 10000 nM under setting [2].
As to `O=S(=O)(Nc1ccccc1)c1cccc(Nc2nccc(-c3ccc4[nH]cnc4c3)n2)c1` [Compound 23, 3-((4-(1H-benzo[d]imidazol-5-yl)pyrimidin-2-yl)amino)-N-phenylbenzenesulfonamide], the IC50 is, setting by setting: under setting [1], 1000 to 10000 nM; under setting [2], 1000 to 10000 nM.
`Cc1cnc(Nc2cccc(C(F)(F)F)c2)nc1-c1cnc2nc[nH]c2c1` [Compound 113, 4-(1H-imidazo[4,5-b]pyridin-6-yl)-5-methyl-N-(3-(trifluoromethyl)phenyl)pyrimidin-2-amine]: the IC50 was in the range of 1000 to 10000 nM under setting [1] and 1000 to 10000 nM under setting [2].
Consider `Oc1cc(-c2ccnc(Nc3ccncc3)n2)ccn1` [Compound 190, 4-(2-(pyridin-4-ylamino)pyrimidin-4-yl)pyridin-2-ol], for which the 50% inhibitory concentration (IC50) lay in the range of 1000 to 10000 nM under setting [1] and 1000 to 10000 nM under setting [2].
As to `COc1cccc(-c2ccnc(Nc3cccc(Cl)c3)n2)c1` [Compound 249, N-(3-chlorophenyl)-4-(3-methoxyphenyl)pyrimidin-2-amine], the half-maximal inhibitory concentration (IC50) under setting [1] lay within 1000 to 10000 nM and the IC50 under setting [2] is 1000 to 10000 nM.
`CN(c1ccccc1)c1nccc(-c2cncc(O)c2)n1` [Compound 218, 5-(2-(methyl(phenyl)amino)pyrimidin-4-yl)pyridin-3-ol]: the 50% inhibitory concentration (IC50) under setting [1] was 10000 to 100000 nM and the IC50 under setting [2] lay in the range of 10000 to 100000 nM.
As for `CCC(=O)Nc1cccc(Nc2nccc(-c3ccc4[nH]cnc4c3)n2)c1` [Compound 15, N-(3-((4-(1H-benzo[d]imidazol-5-yl)pyrimidin-2-yl)amino)phenyl)propionamide], the IC50 lay within 200 to 1000 nM under setting [1] and 200 to 1000 nM under setting [2].
As to `CCOC(=O)CCc1cccc(Nc2nccc(-c3ccc4nc[nH]c4c3)n2)c1` [Compound 272, ethyl 3-(3-((4-(1H-benzo[d]imidazol-6-yl)pyrimidin-2-yl)amino)phenyl)propanoate], the IC50 by setting is: under setting [1], 200 to 1000 nM; under setting [2], 200 to 1000 nM.
Consider `Cc1cccc(Nc2nccc(-c3ccc4[nH]cnc4c3)n2)c1` [Compound 40, 4-(1H-benzo[d]imidazol-5-yl)-N-(m-tolyl)pyrimidin-2-amine], for which the IC50 runs as follows: under setting [1], 200 to 1000 nM; under setting [2], 200 to 1000 nM.
For `CC(C)c1cccc(Nc2nccc(-c3cnc4nc[nH]c4c3)n2)c1` [Compound 134, 4-(1H-imidazo[4,5-b]pyridin-6-yl)-N-(3-isopropylphenyl)pyrimidin-2-amine], the IC50 runs as follows: under setting [1], under 200 nM; under setting [2], under 200 nM.
For `Oc1ncc(-c2ccnc(Nc3cccc(F)c3)n2)s1` [Compound 181, 5-(2-((3-fluorophenyl)amino)pyrimidin-4-yl)thiazol-2-ol], the IC50 lay within 200 to 1000 nM under setting [1] and 200 to 1000 nM under setting [2].
For the molecule `c1cc(Nc2nccc(-c3ccc4[nH]cnc4c3)n2)cc(-c2nnn[nH]2)c1` [Compound 267, N-(3-(1H-tetrazol-5-yl)phenyl)-4-(1H-benzo[d]imidazol-5-yl)pyrimidin-2-amine], the IC50 was under 200 nM under setting [1] and under 200 nM under setting [2].
